# Results reported in ChEMBL document CHEMBL1201862, “PubChem BioAssay data set” (2004).
# Structures can show the parent of a compound that is named as a salt. The source made the active and inactive calls.
# What was measured:
# Vero [1] = assay: cells; format: functional; conditions: Chlorocebus sabaeus
# Vero [2] = assay: cells; format: functional, cell-based; conditions: Chlorocebus sabaeus
# cells [3] = format: functional
# [4] = growth suppression of beta-catenin-knockout colon cells, dose response, cell-based, HCT116, human colon tumor (AID 1045); format: functional;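 note: HCT116 colon tumor cells with beta catenin knocked out; cells exposed to compound for 60 hours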
# [5] = HepG2 cell cytotoxicity, dose response, cytotoxicity control for non-replicating M. tuberculosis project (AID 489018); format: functional; conditions: Mycobacterium tuberculosis
# [6] = Vero E6 cell cytotoxicity, dose response, cytotoxicity control for non-replicating M. tuberculosis project, secondary assay (AID 492998); format: functional, VeroE6; conditions: Vero C1008
# [7] = THP-1 cell cytotoxicity, dose response, cytotoxicity control for non-replicating M. tuberculosis project (AID 489025); format: functional
# [8] = growth suppression of PTEN-null colon cells, dose response, cell-based, HCT116 PTEN knockout (AID 1047); format: functional;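 note: HCT116 colon tumor cells with PTEN knocked out; cells exposed to compound for 60 hours before readout; potency for loss of cell viability measured by luminescence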
# [9] = target: Peroxisome proliferator-activated receptor gamma/Nuclear receptor coactivator 3 (Homo sapiens, UniProt P37231); assay: (§1) TR-FRET dose response biochemical High Throughput Screening assay for agonists of the steroid receptor coactivator 3 (SRC-3) recruitment by the peroxisome proliferator-activated receptor gamma (PPAR gamma): non-selective agonists. [Related pubchem assays: 1301 (Confirmation screen.), 1048 (Primary screen.)]; format: functional
# [10] = target: Peroxisome proliferator-activated receptor gamma/Nuclear receptor coactivator 1 (Homo sapiens, UniProt P37231); assay: as §1, with “1 (SRC-1)” for “3 (SRC-3)”, “assays (depositor defined):AID1300, AID1808, AID504735, AID631]” for “assays: 1301 (Confirmation screen.), 1048 (Primary screen.)]”; format: protein assay
# [11] = target: Peroxisome proliferator-activated receptor gamma/Nuclear receptor coactivator 2 (Homo sapiens, UniProt P37231); assay: TR-FRET dose response biochemical High Throughput Screening assay for agonists of the steroid receptor coactivator 2 (SRC-2) recruitment by the peroxisome proliferator-activated receptor gamma (PPAR gamma): non-selective agonists. [Related pubchem assays: 1297, 1032 ]; format: functional
# Cytochrome P450 3A4 = Cytochrome P450 3A4 (Homo sapiens, UniProt P08684); conditions: Potency;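 note: confirmatory qHTS run detecting inhibitors and substrates of CYP3A4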
# [12] = target: Voltage-gated inwardly rectifying potassium channel KCNH2 (Homo sapiens, UniProt Q12809); conditions: Potency;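 note: confirmatory quantitative high-throughput screen measuring inhibition of hERG channel activity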
# [13] = C. albicans growth with fluconazole, confirmation, fluorescence, retest (AID 2467); format: functional, cell-based
# [14] = target: ATP-dependent molecular chaperone HSP82 (Candida albicans (strain WO-1) (Yeast), UniProt C4YTQ8); assay: loss of DOC-induced GRE-beta-galactosidase reporter signal, dose response, Hsp90 inhibitor project, S. cerevisiae, luminescence (AID 2400); format: functional, cell-based;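 note: beta-galactosidase luminescence from glucocorticoid response element reporter as proxy for Hsp90 function; inhibitor potency where signal loss means Hsp90 inhibition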
# [15] = NIH-3T3 fibroblast cytotoxicity, dose response, cytotoxicity control, cell-based, fluorescence, Alamar Blue, secondary assay (AID 2327); format: functional;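 note: NIH-3T3 mouse fibroblasts cultured with fluconazole at 8 µg/mL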
# [16] = target: T1, Serine/threonine-protein phosphatase (Candida dubliniensis (strain CD36 / CBS 7987 / NCPF 3949 / NRRLY-17841) (Yeast), UniProt B9W6M3); assay: calcineurin pathway inhibitors in yeast reporter, dose response, S. cerevisiae, CDRE-lacZ, luminescence, secondary (AID 2388); format: functional, cell-based;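 note: yeast reporter cells carrying a calcineurin-responsive lacZ construct stimulated with calcium chloride; luminescent beta-galactosidase reporter signal in whole cells rather than isolated phosphatase activity; potency for inhibition where a drop in reporter signal means calcineurin blockade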
# T1 sequence (B9W6M3 whole entry): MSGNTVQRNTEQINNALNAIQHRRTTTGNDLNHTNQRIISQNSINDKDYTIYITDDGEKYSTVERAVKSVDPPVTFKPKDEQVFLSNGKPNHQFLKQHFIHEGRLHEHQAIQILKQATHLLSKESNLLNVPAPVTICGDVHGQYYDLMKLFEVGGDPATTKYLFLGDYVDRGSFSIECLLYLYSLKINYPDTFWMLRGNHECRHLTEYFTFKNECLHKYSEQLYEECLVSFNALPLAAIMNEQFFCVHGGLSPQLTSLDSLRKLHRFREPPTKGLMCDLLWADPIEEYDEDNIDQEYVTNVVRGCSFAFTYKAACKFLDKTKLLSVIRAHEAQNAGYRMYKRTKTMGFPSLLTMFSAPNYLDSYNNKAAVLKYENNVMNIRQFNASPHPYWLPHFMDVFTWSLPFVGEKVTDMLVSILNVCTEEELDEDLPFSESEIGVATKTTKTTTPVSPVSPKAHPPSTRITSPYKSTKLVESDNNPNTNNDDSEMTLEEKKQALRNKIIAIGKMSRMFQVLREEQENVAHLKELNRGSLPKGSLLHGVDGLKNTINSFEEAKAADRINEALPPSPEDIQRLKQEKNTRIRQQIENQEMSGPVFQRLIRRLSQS
# BJ [17] = assay: cytotoxicity toward BJ-TERT-LT-ST fibroblasts, dose response, cell-based, RAS-independent, luminescence (AID 1935); format: functional; conditions: Homo sapiens;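 note: BJ fibroblasts immortalized with TERT plus LT and ST oncogenes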
# BJ [18] = assay: cells; format: functional, cell-based; conditions: Homo sapiens
# [19] = cytotoxicity toward DRD oncogenic fibroblasts, dose response, cell-based, non-viral oncogenic, luminescence (AID 1934); format: functional; conditions: Homo sapiens
# BJ [20] = assay: cytotoxicity toward BJ-TERT fibroblasts, dose response, cell-based, RAS-independent, luminescence (AID 1933); format: functional; conditions: Homo sapiens
# [21] = HEp-2 cell cytotoxicity, dose response, cytotoxicity control for RSV inhibitor project, HTS (AID 2410); format: functional; conditions: human respiratory syncytial virus
# cells [22] = assay: cells
# [23] = microbe, parasite or virus in culture; format: functional; conditions: Mycobacterium tuberculosis
# [24] = target: T2, Short transient receptor potential channel 4 (Mus musculus, UniProt Q9QUQ5); assay: mouse TRPC4 channel activators, dose response, cell-based, HEK293 TRPC4/mu-opioid, Fluo-4 calcium (AID 434937); format: functional
# T2 sequence (Q9QUQ5 whole entry): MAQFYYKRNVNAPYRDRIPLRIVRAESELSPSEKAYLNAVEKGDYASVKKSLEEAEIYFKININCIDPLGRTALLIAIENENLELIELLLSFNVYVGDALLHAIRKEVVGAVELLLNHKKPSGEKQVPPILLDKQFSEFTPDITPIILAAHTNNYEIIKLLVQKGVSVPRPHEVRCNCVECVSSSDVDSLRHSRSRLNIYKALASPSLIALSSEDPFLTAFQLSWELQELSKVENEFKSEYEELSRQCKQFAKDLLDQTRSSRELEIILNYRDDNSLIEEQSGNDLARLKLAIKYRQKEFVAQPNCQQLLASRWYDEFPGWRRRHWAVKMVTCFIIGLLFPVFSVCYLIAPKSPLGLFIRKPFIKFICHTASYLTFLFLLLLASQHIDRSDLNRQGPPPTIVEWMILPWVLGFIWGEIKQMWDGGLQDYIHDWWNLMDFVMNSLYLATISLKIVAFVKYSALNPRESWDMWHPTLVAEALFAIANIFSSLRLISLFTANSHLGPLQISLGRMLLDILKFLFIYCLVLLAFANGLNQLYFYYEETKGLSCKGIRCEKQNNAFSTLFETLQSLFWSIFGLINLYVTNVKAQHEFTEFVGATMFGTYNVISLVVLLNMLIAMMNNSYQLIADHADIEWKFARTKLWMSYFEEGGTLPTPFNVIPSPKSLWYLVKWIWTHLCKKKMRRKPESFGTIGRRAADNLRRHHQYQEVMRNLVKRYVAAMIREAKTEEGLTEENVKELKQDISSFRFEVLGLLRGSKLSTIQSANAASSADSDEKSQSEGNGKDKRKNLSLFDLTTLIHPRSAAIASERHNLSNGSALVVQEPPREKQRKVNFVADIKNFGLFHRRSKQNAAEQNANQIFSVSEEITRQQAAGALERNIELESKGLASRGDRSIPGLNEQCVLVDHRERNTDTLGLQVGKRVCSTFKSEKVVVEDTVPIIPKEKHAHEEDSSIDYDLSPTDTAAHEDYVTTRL
# [25] = cytotoxicity in MIN6 insulinoma cells, dose response, cytotoxicity control, cell-based, mouse insulinoma (AID 2122); format: functional;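 note: confirmatory high-throughput counterscreen run to flag cytotoxic compounds; mouse MIN-6 beta cells carrying an insulin promoter eGFP reporter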
# [26] = insulin promoter down-regulators in MIN6 cells, imaging, high-content screening, mouse beta cells (AID 1628); format: functional
# [27] = target: FAD-linked sulfhydryl oxidase ALR (Homo sapiens, UniProt P55789); assay: inhibitors of human ALR sulfhydryl oxidase, dose response, biochemical, H2O2 detection, luminescence, cherry-pick (AID 493248)
# Cytochrome P450 1A2 = target: T3, Cytochrome P450 1A2 (Homo sapiens, UniProt P05177);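 note: PubChem cytochrome P450 panel assay, CYP1A2 panel member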
# T3 sequence (P05177 whole entry): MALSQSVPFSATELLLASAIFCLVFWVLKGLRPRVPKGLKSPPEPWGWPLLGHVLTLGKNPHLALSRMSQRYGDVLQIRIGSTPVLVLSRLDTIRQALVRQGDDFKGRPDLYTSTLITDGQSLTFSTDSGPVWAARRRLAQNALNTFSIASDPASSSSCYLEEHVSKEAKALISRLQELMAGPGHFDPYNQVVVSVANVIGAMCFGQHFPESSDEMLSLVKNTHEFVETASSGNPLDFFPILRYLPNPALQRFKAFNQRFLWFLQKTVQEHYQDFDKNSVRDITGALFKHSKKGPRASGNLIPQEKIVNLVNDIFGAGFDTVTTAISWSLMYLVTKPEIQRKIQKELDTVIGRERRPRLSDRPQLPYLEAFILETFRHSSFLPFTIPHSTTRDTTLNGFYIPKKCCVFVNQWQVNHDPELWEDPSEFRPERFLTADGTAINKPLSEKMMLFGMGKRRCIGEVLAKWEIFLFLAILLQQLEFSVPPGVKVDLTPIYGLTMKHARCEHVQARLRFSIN
# Cytochrome P450 2D6 = Cytochrome P450 2D6 (Homo sapiens, UniProt P10635);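 note: CYP2D6 member of a cytochrome P450 panel assay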
# [28] = cytotoxicity in HPDE-C7 cells, cell-based, fluorescence, HTS (AID 430); format: functional; conditions: Homo sapiens
# [29] = cytotoxicity in KRAS-transformed pancreatic duct cells, primary screen, cell-based, fluorescence, HTS (AID 431); format: functional; conditions: Homo sapiens;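 note: cell line used: HPDE-C7K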
# Peroxisome proliferator-activated receptor gamma/Nuclear receptor coactivator 2, sequence (P37231 whole entry): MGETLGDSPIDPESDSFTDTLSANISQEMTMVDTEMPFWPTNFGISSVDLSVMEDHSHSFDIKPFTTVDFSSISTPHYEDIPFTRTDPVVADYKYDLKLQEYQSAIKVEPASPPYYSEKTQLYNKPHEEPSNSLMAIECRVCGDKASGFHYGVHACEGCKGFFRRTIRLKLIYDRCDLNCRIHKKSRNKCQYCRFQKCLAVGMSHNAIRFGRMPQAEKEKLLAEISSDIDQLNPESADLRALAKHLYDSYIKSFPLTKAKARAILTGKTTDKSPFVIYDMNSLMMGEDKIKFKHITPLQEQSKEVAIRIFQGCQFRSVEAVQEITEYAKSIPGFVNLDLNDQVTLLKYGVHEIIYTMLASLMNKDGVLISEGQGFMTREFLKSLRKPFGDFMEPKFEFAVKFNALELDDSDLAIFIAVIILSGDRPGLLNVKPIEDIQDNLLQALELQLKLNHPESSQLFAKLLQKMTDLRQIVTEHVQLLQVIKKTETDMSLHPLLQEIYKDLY
# Peroxisome proliferator-activated receptor gamma/Nuclear receptor coactivator 2, sequence (Q15596 whole entry, further chain): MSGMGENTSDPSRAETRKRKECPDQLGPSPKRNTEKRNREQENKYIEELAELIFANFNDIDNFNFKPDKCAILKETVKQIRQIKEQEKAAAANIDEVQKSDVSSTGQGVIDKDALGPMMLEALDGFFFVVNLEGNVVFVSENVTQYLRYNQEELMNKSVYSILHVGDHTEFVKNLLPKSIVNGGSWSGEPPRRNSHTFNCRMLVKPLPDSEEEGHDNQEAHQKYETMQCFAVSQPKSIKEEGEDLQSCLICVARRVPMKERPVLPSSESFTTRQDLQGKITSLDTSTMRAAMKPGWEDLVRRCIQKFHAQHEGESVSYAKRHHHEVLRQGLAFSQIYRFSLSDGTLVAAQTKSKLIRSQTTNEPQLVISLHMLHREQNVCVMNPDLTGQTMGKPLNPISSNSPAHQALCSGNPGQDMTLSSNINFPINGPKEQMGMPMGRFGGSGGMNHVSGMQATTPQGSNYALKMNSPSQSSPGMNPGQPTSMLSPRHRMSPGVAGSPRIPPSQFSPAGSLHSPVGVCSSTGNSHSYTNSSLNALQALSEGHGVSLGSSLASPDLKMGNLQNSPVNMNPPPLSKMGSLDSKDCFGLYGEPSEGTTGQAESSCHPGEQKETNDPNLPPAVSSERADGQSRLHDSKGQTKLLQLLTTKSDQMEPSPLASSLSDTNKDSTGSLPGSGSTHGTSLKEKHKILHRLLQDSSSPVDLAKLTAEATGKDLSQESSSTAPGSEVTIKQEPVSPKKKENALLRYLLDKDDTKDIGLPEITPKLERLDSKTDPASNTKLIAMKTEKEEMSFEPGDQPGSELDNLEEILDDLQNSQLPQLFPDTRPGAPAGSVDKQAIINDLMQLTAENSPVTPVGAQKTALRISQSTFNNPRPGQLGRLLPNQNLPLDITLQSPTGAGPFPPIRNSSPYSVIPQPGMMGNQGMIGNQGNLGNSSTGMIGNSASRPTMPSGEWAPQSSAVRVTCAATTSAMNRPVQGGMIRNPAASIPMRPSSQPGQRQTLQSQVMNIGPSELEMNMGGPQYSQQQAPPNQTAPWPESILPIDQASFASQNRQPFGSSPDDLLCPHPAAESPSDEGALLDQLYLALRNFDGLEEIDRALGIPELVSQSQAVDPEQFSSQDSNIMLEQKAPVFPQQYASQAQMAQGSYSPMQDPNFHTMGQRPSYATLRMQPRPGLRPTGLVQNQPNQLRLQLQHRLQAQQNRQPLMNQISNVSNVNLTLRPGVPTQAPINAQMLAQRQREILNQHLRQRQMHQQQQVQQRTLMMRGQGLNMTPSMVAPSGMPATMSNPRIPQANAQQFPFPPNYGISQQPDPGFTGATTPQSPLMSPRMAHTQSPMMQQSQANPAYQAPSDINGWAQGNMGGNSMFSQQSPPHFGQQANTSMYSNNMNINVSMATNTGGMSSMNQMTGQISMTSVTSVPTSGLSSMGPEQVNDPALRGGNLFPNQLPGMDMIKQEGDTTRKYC
# Peroxisome proliferator-activated receptor gamma/Nuclear receptor coactivator 3, sequence (P37231 whole entry): as the sequence (P37231 whole entry) above
# Peroxisome proliferator-activated receptor gamma/Nuclear receptor coactivator 3, sequence (Q9Y6Q9 whole entry, further chain): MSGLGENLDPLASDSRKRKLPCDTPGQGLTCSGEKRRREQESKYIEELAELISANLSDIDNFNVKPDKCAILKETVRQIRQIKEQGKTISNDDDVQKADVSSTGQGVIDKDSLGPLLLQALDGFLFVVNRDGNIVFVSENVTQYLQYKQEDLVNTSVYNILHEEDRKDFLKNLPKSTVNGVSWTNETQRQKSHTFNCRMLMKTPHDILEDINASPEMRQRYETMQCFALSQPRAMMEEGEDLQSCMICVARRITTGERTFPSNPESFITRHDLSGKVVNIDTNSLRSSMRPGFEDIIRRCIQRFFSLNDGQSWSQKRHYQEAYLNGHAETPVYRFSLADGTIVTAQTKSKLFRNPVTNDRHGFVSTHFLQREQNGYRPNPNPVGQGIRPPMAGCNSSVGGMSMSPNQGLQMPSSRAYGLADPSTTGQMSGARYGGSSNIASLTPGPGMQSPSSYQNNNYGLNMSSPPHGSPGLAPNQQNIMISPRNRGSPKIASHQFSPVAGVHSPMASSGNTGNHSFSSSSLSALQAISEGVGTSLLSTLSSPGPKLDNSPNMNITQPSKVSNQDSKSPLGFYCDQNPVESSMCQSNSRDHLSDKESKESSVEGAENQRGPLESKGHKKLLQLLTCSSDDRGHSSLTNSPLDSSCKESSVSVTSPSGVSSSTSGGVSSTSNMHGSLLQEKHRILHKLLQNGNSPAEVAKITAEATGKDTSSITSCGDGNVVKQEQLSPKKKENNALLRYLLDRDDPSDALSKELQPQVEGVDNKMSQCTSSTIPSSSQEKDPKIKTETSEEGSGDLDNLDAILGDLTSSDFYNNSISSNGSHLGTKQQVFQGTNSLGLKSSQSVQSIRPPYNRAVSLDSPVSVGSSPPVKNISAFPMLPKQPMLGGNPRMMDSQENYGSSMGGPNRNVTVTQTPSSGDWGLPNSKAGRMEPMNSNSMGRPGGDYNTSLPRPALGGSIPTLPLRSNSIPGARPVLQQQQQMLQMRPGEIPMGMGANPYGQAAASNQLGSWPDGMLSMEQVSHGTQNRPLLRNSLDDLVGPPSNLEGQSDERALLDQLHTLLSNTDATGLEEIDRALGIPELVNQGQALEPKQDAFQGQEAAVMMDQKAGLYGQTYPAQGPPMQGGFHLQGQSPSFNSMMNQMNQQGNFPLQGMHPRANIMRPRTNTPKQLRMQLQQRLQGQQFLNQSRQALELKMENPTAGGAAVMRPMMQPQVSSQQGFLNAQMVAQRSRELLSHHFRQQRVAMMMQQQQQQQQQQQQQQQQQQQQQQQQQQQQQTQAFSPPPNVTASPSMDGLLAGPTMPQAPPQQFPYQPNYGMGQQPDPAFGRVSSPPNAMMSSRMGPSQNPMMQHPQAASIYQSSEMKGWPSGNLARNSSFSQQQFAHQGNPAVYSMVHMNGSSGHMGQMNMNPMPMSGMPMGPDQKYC
# Voltage-gated inwardly rectifying potassium channel KCNH2, sequence (Q12809 whole entry): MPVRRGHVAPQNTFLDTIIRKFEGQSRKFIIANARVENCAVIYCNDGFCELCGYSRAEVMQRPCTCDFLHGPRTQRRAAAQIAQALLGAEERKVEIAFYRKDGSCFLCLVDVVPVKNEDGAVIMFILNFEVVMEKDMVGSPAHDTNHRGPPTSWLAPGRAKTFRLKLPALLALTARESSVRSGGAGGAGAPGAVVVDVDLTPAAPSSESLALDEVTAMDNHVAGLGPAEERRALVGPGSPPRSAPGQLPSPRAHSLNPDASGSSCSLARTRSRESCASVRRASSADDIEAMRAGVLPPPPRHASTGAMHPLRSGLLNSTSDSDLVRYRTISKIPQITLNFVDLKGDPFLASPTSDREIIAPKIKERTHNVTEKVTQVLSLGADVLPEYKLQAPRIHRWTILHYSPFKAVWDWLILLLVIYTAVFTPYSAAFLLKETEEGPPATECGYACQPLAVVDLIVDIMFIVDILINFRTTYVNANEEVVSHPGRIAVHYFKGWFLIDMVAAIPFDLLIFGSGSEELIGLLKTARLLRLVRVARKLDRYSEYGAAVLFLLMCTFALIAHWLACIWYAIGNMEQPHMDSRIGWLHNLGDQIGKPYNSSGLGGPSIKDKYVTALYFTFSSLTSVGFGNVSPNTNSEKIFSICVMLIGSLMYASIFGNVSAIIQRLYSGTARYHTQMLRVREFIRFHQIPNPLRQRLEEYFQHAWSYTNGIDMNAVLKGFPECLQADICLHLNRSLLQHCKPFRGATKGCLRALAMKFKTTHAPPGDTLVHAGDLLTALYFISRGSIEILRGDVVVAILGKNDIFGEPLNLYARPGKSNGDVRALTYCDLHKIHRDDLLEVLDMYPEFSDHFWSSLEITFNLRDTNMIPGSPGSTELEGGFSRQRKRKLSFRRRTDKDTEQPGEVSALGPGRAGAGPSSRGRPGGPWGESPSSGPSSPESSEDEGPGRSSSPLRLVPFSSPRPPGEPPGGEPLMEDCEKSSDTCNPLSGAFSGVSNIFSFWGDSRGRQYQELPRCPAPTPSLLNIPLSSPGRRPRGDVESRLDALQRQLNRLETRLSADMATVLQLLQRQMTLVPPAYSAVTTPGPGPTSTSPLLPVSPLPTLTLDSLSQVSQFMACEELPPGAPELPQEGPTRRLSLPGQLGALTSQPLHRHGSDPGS
smiles,measurement,setting,value
O=C(c1ccc2c(c1)N(Cc1cccc(Cl)c1)C(=O)c1ccccc1S2(=O)=O)N1CCN(c2ccccn2)CC1,CC50,Vero [1],> 25 µM (active)
same,IC50,Vero [2],10.1 µM (active)
Clc1cccc2c1Sc1ccccc1CC2N1CCNCC1 (stereo not given),IC50,cells [3],11.5 µM (active)
same,EC50,[4],7.41 µM (active)
same,CC50,[5],7.37 µM (active)
same,CC50,[6],9.77 µM (active)
same,CC50,[7],8.49 µM (active)
same,EC50,[8],7.22 µM (active)
O=C(c1cc2c(s1)-c1ccccc1OC2)N1CCN(c2ccccn2)CC1,EC50,[9],> 79.4 µM (not active)
same,EC50,[10],33.7 µM (inactive)
same,EC50,[11],23.2 µM (not active)
CN(C)c1ccc(C2(c3ccc(N(C)C)cc3)OC(=O)c3cc(N(C)C)ccc32)cc1,AC50,Cytochrome P450 3A4,7.94 µM (inconclusive)
same,AC50,[12],0.251 µM (inconclusive)
O=C(Nc1nnc(-c2ccco2)o1)c1cccc(Cl)c1,EC50,[13],1.33 µM (active)
same,EC50,[14],> 150 µM (inactive)
same,EC50,[15],> 150 µM (inactive)
same,EC50,[16],> 180 µM (inactive)
O=c1oc(-c2ccccc2F)nc2c1cnn2-c1ccccc1,EC50,[9],> 79.4 µM (not active)
same,EC50,[10],> 79.4 µM (inactive)
same,EC50,[11],> 79.4 µM (not active)
O=C(CSc1ncnc2c1oc1ccccc12)OCc1ccccc1,EC50,[9],> 79.4 µM (not active)
same,EC50,[10],> 2.94 µM (inactive)
same,EC50,[11],> 8.82 µM (not active)
Cc1cccc(-n2c(SCC(=O)Nc3ncc(Cl)cc3Cl)nc3ccccc32)c1,CC50,Vero [1],> 25 µM (active)
same,EC50,BJ [17],> 150 µM (not active)
same,EC50,BJ [18],50.5 µM (inconclusive)
same,EC50,[19],94.2 µM (active)
same,EC50,BJ [20],33.7 µM (active)
same,CC50,[21],2.36 µM (active)
same,IC50,cells [22],1.26 µM (active)
same,IC50,Vero [2],0.56 µM (active)
O=C(CCC1CCCC1)c1c(O)c2ccccc2oc1=O,CC50,[23],15.4 µM (active)
same,IC50,cells [3],8.45 µM (active)
same,CC50,[5],> 20 µM (active)
same,CC50,[6],14.4 µM (active)
same,EC50,[24],5.96 µM (active)
same,CC50,[7],23.5 µM (active)
CN1CCN(c2ccccc2NC(=O)c2cccc(OCc3ccccc3)c2)CC1,IC50,[25],4.17 µM (active)
same,IC50,[26],4.3 µM (active)
CCCN1C(=O)c2ccccc2NC1c1ccc(OC)cc1O (stereo not given),AC50,[27],12.2 µM (active)
same,IC50,Vero [2],24.1 µM (active)
Clc1ccc(Cl)c(-c2ccc(/C=N/c3nc[nH]n3)o2)c1,EC50,[9],> 79.4 µM (not active)
same,EC50,[10],13.7 µM (inactive)
same,EC50,[11],12.6 µM (not active)
COc1ccccc1-c1cc(C(=O)N/N=C/c2cccs2)c2ccccc2n1,CC50,Vero [1],> 25 µM (active)
same,CC50,[21],24.7 µM (active)
same,IC50,Vero [2],18.9 µM (active)
NNC(=O)c1ccncc1 [ISONIAZID],AC50,Cytochrome P450 1A2,6.31 µM (inconclusive)
same,AC50,Cytochrome P450 2D6,12.6 µM (inconclusive)
same,AC50,[12],35.5 µM (inconclusive)
CC1(C)CCC2=C(O1)c1ccccc1C(=O)C2=O [LAPACHONE],AC50,[12],15.8 µM (inconclusive)
CC(CN1c2ccccc2Sc2ccccc21)N(C)C (stereo not given) [PROMETHAZINE HYDROCHLORIDE],EC50,[28],> 20 µM (not active)
same,AC50,[27],0.367 µM (active)
same,EC50,[29],> 20 µM (not active)
same,AC50,[12],15.8 µM (inconclusive)
